Here are results for two compounds from ChEMBL document CHEMBL5096215, “Design, synthesis and antitumor efficacy evaluation of a series of novel β-elemene-based macrocycles” (Bioorg Med Chem, 2022).

As usually defined, the IC50 is the point on the concentration scale where inhibition reaches its midpoint. One may read the inhibition as the change of the read-out against control, counted positive when it falls.

Assay [1] is described as follows: Antiproliferative activity against human U-87 MG cells assessed as inhibition of cell growth measured after 48 hrs by CCK8 assay relative to control. In kind it is functional, cell-based, U-87MG ATCC. For orientation: Tetrazolium assays rely on reduction of a dye to a coloured formazan, in cell work by metabolically active cells.
In assay [2] the test system is U-251. As to the kind of experiment: Antiproliferative activity against human U-251 cells assessed as inhibition of cell growth measured after 48 hrs by CCK8 assay relative to control. In kind it is functional, cell-based. Conditions: U-251, 48 h.
The subject of assay [3] is A549. The experiment in a line: Antiproliferative activity against human A549 cells assessed as inhibition of cell growth at 50 uM measured after 48 hrs by CCK8 assay relative to control. The class given is functional.
The test system of assay [4] is HCT-116. The experiment in a line: Antiproliferative activity against human HCT-116 cells assessed as inhibition of cell growth measured after 48 hrs by CCK8 assay relative to control. The class given is functional, cell-based. As to conditions: HCT-116, 48 h.
Assay [5] relates to HCT-116. As to the kind of experiment: Antiproliferative activity against human HCT-116 cells assessed as inhibition of cell growth at 50 uM measured after 48 hrs by CCK8 assay relative to control. The class given is functional.
The test system of assay [6] is U-251. The experiment in a line: Antiproliferative activity against human U-251 cells assessed as inhibition of cell growth at 50 uM measured after 48 hrs by CCK8 assay relative to control. The class given is functional.
In assay [7] the test system is A549. As to the kind of experiment: Antiproliferative activity against human A549 cells assessed as inhibition of cell growth measured after 48 hrs by CCK8 assay relative to control. In kind it is functional, cell-based. Conditions: A549, 48 h.
Assay [8] relates to PC-3. As to the kind of experiment: Antiproliferative activity against human PC-3 cells assessed as inhibition of cell growth measured after 48 hrs by CCK8 assay relative to control. The class given is functional, cell-based. Conditions: PC-3, 48 h.
Assay [9] has as its system PC-3. The experiment in a line: Antiproliferative activity against human PC-3 cells assessed as inhibition of cell growth at 50 uM measured after 48 hrs by CCK8 assay relative to control. In kind it is functional.
Assay [10] can be described thus: Antiproliferative activity against human U-87 MG cells assessed as inhibition of cell growth at 50 uM measured after 48 hrs by CCK8 assay relative to control. The class given is functional, U-87MG ATCC.
Assay [11] deals with A549. As to the kind of experiment: Potency index, […] for antiproliferative activity against human A549 cells assessed as inhibition of cell growth measured after 48 hrs by CCK8 assay. In kind it is functional.
Assay [12] deals with HCT-116. The experiment in a line: Potency index, […] for antiproliferative activity against human HCT-116 cells assessed as inhibition of cell growth measured after 48 hrs by CCK8 assay. In kind it is functional.
The subject of assay [13] is U-251. The experiment in a line: Potency index, […] for antiproliferative activity against human U-251 cells assessed as inhibition of cell growth measured after 48 hrs by CCK8 assay. The class given is functional.
Assay [14] in a line: Potency index, […] for antiproliferative activity against human U-87 MG cells assessed as inhibition of cell growth measured after 48 hrs by CCK8 assay. The class given is functional, U-87MG ATCC.
Assay [15] relates to PC-3. As to the kind of experiment: Potency index, […] for antiproliferative activity against human PC-3 cells assessed as inhibition of cell growth measured after 48 hrs by CCK8 assay. In kind it is functional.

Turning to `C=C[C@]1(C)CC[C@@H](C(=C)C)C[C@H]1C(=C)C`, the IC50 in assay [1] was 266 µM; in the assay on U-251 [2], 181 µM; in the assay on HCT-116 [4] it was 782 µM; in the assay on A549 [7], 227 µM; in the assay with PC-3 [8], 276 µM. The inhibition at 50 µM (with A549 [3]; with HCT-116 [5]; in the assay on U-251 [6]; in the assay with PC-3 [9]; in assay [10]) was less than 20% throughout.

As for `C=C[C@]1(C)CC[C@@H]2C[C@H]1C(=C)CN(C)CCN(C)Cc1cccc(c1)CN(C)CCN(C)CC2=C`, the “Ratio IC50” value in the assay with A549 [11] was 5; in the assay on HCT-116 [12], 20; with U-251 [13], 5; in assay [14], 5; with PC-3 [15] it was 5. For the same compound, the IC50 was 23 µM in the assay on U-251 [2], 17.6 µM in the assay on HCT-116 [4], 44.8 µM in the assay on A549 [7] and 38.6 µM with PC-3 [8]. Besides, the inhibition at 50 µM is 60.7% with A549 [3]; 94.8% in the assay with HCT-116 [5]; 98.5% in the assay on U-251 [6]; 68.8% in the assay on PC-3 [9]; less than 20% in [10].
